From US7462598B2, “Antimicrobial theta defensins, analogs thereof, and methods of use” (priority 2002, dated 2008)
Marks after values point to notes of the source that are not given here. Bridge positions count the residues as written; N and C are the ends. Peptide text beside a SMILES is read from it.

Tests used:
C. albicans 16820 = test: Cell-suspension microbicidal assay (MMC); type: cell-based, Candida albicans; conditions: for MMC, C. albicans: lowest concentration that reduced cell viability by 99.9%, 10 mM PIPES, 5 mM glucose, pH 7.4, 2 h 37° C.
Description: (§1) To test microbicidal activities, the activities of each peptide against S. aureus 502a, E. coli ML35, and C. albicans 16820 were assessed essentially as described in Example I with modifications to allow for simultaneous analysis of all twenty peptides. Briefly, two-fold serial dilutions of each peptide (in 0.01% acetic acid 0.062-8.0 μg/ml final concentrations) were mixed with 10 mM PIPES, pH 7.4, containing 5 mM glucose in sterile polystyrene 96-well plates (Corning, N.Y.). Aliquots of log-phase bacteria or yeast were added to a 2×10^6 CFU/ml final density as determined by A620. After 2 h incubation at 37° C., 15 μl of the incubation mixture was removed and serially diluted ten-fold from 1:10 to 1:10^6 in trypticase soy broth (bacteria) or Sabaraud dextrose broth (C. albicans). The diluted cell suspensions were grown 24-48 h at 37° C. until cell pellets were visible. Microbicidal activity was determined as absence of growth and was correlated to CFU/ml in control experiments where activity was determined in parallel by colony counting (see Example I). Absence of growth at the 1:10^3 dilution is equivalent to a 3-log reduction in microbial viability.
(§2) The microbicidal activities of each peptide against E. coli ML35, S. aureus 502a, and C. albicans 16820 were determined with cell-suspension microbicidal assays in 96-well plates (see Example II). Briefly, log-phase cells (2×10^6 CFU/ml final) were incubated with increasing concentrations of peptides (0-8 μg/ml final) in 50 μl of 10 mM PIPES, 5 mM glucose, pH 7.4, for 2 h at 37° C. Incubation mixtures were diluted 1:10 to 1:10^6 with trypticase-soy broth (bacteria) or Sabaraud dextrose broth (fungi) and incubated at 37° C. for 24-48 h until cell pellets were visible. Microbicidal activities (confirmed in control experiments as described in Example II) were determined as the absence of a cell pellet in the various dilutions. Peptide concentrations that caused ≧99.9% killing (absence of a cell pellet at 1:10^3 dilution) were taken as the minimum microbicidal concentrations (MMC).

E. coli ML35 [1] = test: Cell-suspension microbicidal assay (MMC); type: cell-based, Escherichia coli; conditions: for MMC, E. coli: lowest concentration that reduced cell viability by 99.9%, 10 mM PIPES, 5 mM glucose, pH 7.4, 2 h 37° C.
Description: as §1, §2

[2] = system: S. aureus 502a, E. coli ML35, and C. albicans 16820; test: Cell-suspension microbicidal assay, statements across the test organisms (lowest MMC, overall ranges); type: cell-based; conditions: for 99.9% kill against one of the bacterial organisms: at 8 μg/ml, the highest concentration tested; for M: peptide concentration that kill 99.9% of either S. aureus, E. coli, or C. albicans, lowest MMC value; for fold higher MMC than the native cyclic peptide: de-cyclized analog versus native θ-defensin, three test organisms
Description: as §1, §2
(§3) A selectivity index (SI=H/M) was calculated as a ratio of a peptide concentration (μg/ml) that causes 3% hemolysis (H) obtained from a dose-dependent hemolysis plot over 0.3 to 3 μg/ml of each peptide in PBS and the lowest MMC value (M) for any of the three test microorganisms (see Example II; Table 2).

S. aureus 502a [3] = test: Cell-suspension microbicidal assay (MMC); type: cell-based, Staphylococcus aureus; conditions: for MMC, S. aureus: lowest concentration that reduced cell viability by 99.9%, 10 mM PIPES, 5 mM glucose, pH 7.4, 2 h 37° C.
Description: as §1, §2

S. aureus 502a [4] = type: cell-based, Staphylococcus aureus; conditions: for enhancement of staphylocidal activity by serum: 10% normal human serum, FIG. 7
Description: Dose-dependent staphylocidal activity of each peptide was determined in assays containing 10% normal human serum. Percentages of killing are relative to activities of peptide-containing incubations in which serum was omitted.
(§4) To determine the effects of serum, salt, calcium chloride and magnesium chloride on microbicidal activities, peptide activities were determined in assays containing varying ionic strength, divalent cations, and serum. The effect of serum on staphylocidal activity of each peptide was determined by incubating 1×10^6 CFU/ml of S. aureus 502a with increasing peptide concentrations (0.5-4 μg/ml) in 10 mM PIPES, pH 7.4, containing 10% normal human serum for 2 h at 37° C. The effect of sodium chloride on staphylocidal activities was assessed with 5 μg/ml of each peptide in 10 mM PIPES, pH 7.4, containing varying concentrations of sodium chloride (0-160 mM). Effects of divalent cations, CaCl2, or MgCl2 (0-5.6 mM) were assessed in microbicidal assays against E. coli ML35. Bactericidal activities were determined by colony counting (see Example II), and microbicidal potencies were expressed as percent killing as follows:
(§5) [formula] where A=surviving bacteria (CFU/ml) after initial incubation with each peptide in buffer containing serum, salt, or divalent cations and Ao=bacterial CFU/ml in the “no-peptide” controls.

E. coli ML35 [5] = test: Membrane permeabilization assay (ONPG hydrolysis); type: cell-based, Escherichia coli; conditions: rates at 1 μg/ml concentration of each peptide
Description: For the membrane permeabilization assay, the permeabilization of bacterial cytoplasmic membranes was determined by measuring hydrolysis of o-nitrophenyl-β-D-galactcpyranoside (ONPG) in E. coli ML35 (Sitaram et al., FEBS Lett. 303:265-268 (1992); Lehrer et al.,. J. Immunol. Methods 108:153-158 (1988)). Peptides dissolved in 5 μl of 0.01% acetic acid were two-fold serially diluted with 10 mM PIPES, pH 7.4, containing 3 mM ONPG, to final peptide concentrations of 0-8.0 μg/ml. Log-phase bacteria, prepared in PIPES buffer as described for the microbicidal assay (see Example I), were added to 1×10^6 CFU/ml final density in a final volume of 90 μl. ONPG hydrolysis was measured at 405 nm for 60 min using a SpectraMAX 190 plate reader and SOFTmaxPRO 3.1 (Molecular Devices Corp., CA). […]

human erythrocytes = test: Hemolysis assay; type: cell-based
Description: For the hemolysis assay, the hemolytic activity of each peptide was determined by the method of Tam et al. (Tam et al., Eur. J. Biochem. 267:3289-3300 (2000)). Blood was obtained from a healthy donor in accordance to a protocol approved by the Institutional Review Board. Normal human serum was prepared from the same individual and stored at −20° C. Red blood cells (RBC) were prepared from blood collected in EDTA. RBC were harvested at 234×g for 10 min, 22° C., washed four times with 10 mM sodium phosphate, 150 mM NaCl, pH 7.4 (PBS), containing 4 mM EDTA and resuspended in PBS without EDTA. Peptides dissolved in 10 μl 0.01% HOAc were diluted with PBS to final concentrations of 0.3-100 μg/ml. RBC were added to a 2% final density in 100 μl. Incubation mixtures were also prepared with 10% serum. After 1 h incubation at 37° C., the cell suspensions were centrifuged at 234×g for 10 min, 22° C. Fifty-μl samples of the supernatants were removed, and the absorbance at 405 nm (A) was measured. Hemolytic activity of each peptide was calculated relative to lysis by 1% NP-40 using the following formula:
as §3

S. aureus 502a [6] = type: cell-based, Staphylococcus aureus; conditions: physiologic salt / various concentrations of salt; FIG. 6
Description: The activity of each peptide (5 μg/ml) was determined in assays containing increasing concentrations of sodium chloride. Staphylocidal activities were expressed as percentages of killing obtained in the absence of additional NaCl.
as §4, §5

SMILES | MMC, C. albicans (C. albicans 16820) | MMC, E. coli (E. coli ML35 [1]) | 99.9% kill against one of the bacterial organisms [2] | M [2] | Killing percentage, S. aureus (MMC not reached) (S. aureus 502a [3]; at 8 μg/ml, the highest concentration tested) | fold lower staphylocidal activity than RTD-3 and PG-1 (S. aureus 502a [3]; from MMC, Table 2) | MMC, S. aureus (S. aureus 502a [3]) | inhibition of bactericidal activity in serum (S. aureus 502a [4]; 502a) | ONPG hydrolysis (E. coli ML35 [5]) | enhancement of staphylocidal activity by serum (S. aureus 502a [4]) | fold lower candidacidal potency than native PG-1 (C. albicans 16820; from MMC, Table 2) | fold lower potency against E. coli than native PG-1 (E. coli ML35 [1]; from MMC, Table 2) | fold less microbicidal than PG-1 ([2]; Table 5) | fold lower staphylocidal potency than native PG-1 (S. aureus 502a [3]; from MMC, Table 2) | percent less hemolytic than native PG-1 (human erythrocytes) | fold higher MMC than the native cyclic peptide [2] | H (human erythrocytes; peptide concentration that causes 3% hemolysis, calculated from dose-dependent hemolysis plot over 0.3-3 μg/ml in PBS) | effect of salt on microbicidal activity (in words) (S. aureus 502a [6])
CC(C)C[C@@H]1NC(=O)[C@@H]2CSSC[C@H](NC(=O)[C@H](CCCNC(=N)N)NC(=O)[C@@H](NC(=O)[C@@H](NC(=O)CNC(=O)[C@@H](N)CCCNC(=N)N)C(C)C)CSSC[C@@H](C(=O)N[C@@H](CCCNC(=N)N)C(N)=O)NC1=O)C(=O)N[C@@H](CC(C)C)C(=O)N[C@H]1CSSC[C@H](NC(=O)[C@H](C(C)C)NC(=O)CNC(=O)[C@H](CCCNC(=N)N)NC(=O)[C@H](CCCNC(=N)N)NC1=O)C(=O)N[C@@H](CCCNC(=N)N)C(=O)N2 [3:1 aRTD-3-NH] (H-RGVCRCLCRRGVCRCLCR-NH2; disulfide 4-17, 6-15, 8-13; N-terminus assumed) | 0.8 µg/mL | 1.0 µg/mL | did not achieve a 99.9% kill | 0.75 µg/mL | (99%)^b | at least 8 fold | > 8 µg/mL | 20-50% | 9.4 (A405/sec) · 10^−5 | – | – | – | – | – | – | – | – | –
CC(C)C[C@H](NC(=O)[C@H](CCCNC(=N)N)NC(=O)CNC(=O)CN)C(=O)N[C@H]1CSSC[C@@H](C(=O)N[C@H](C(=O)NCC(=O)N[C@@H](CCCNC(=N)N)C(=O)N[C@@H](CCCNC(=N)N)C(N)=O)C(C)C)NC(=O)[C@H](C(C)C)NC(=O)[C@@H]2CSSC[C@H](NC(=O)[C@H](Cc3ccc(O)cc3)NC1=O)C(=O)N[C@@H](CCCNC(=N)N)C(=O)N[C@@H](CCCNC(=N)N)C(=O)N[C@@H](CCCNC(=N)N)C(=O)N[C@@H](Cc1ccccc1)C(=O)N2 [4:4 PG-1-NH] (H-GGRLCYCRRRFCVCVGRR-NH2; disulfide 5-14, 7-12; N-terminus assumed) | 1.5 µg/mL | 1.0 µg/mL | – | 0.5 µg/mL | – | – | 0.5 µg/mL | – | 12.4 (A405/sec) · 10^−5 | ~40% | – | – | – | – | – | – | – | –
CC(C)C[C@H](NC(=O)[C@H](CCCNC(=N)N)NC(=O)CNC(=O)CNC(=O)[C@@H](N)CCCNC(=N)N)C(=O)N[C@H]1CSSC[C@@H](C(=O)N[C@H](C(=O)NCC(=O)N[C@@H](CCCNC(=N)N)C(=O)O)C(C)C)NC(=O)[C@H](C(C)C)NC(=O)[C@@H]2CSSC[C@H](NC(=O)[C@H](Cc3ccc(O)cc3)NC1=O)C(=O)N[C@@H](CCCNC(=N)N)C(=O)N[C@@H](CCCNC(=N)N)C(=O)N[C@@H](CCCNC(=N)N)C(=O)N[C@@H](Cc1ccccc1)C(=O)N2 [PG-1-OH] (H-RGGRLCYCRRRFCVCVGR-OH; disulfide 6-15, 8-13; N-terminus assumed) | 1.5 µg/mL | 1.5 µg/mL | – | 1.5 µg/mL | – | – | 2.0 µg/mL | – | 10.7 (A405/sec) · 10^−5 | 25% | 1- to 2 fold | 1- to 2 fold | 2-3 fold | 5 fold | about 50% | – | – | –
CC[C@H](C)[C@@H]1NC(=O)[C@@H]2CSSC[C@H](NC(=O)[C@H](CCCNC(=N)N)NC(=O)[C@@H](NC(=O)[C@H](Cc3ccccc3)NC(=O)CN)CSSC[C@@H](C(=O)N[C@H](C(=O)N[C@@H](CCCNC(=N)N)C(=O)O)[C@@H](C)O)NC1=O)C(=O)N[C@@H](CC(C)C)C(=O)N[C@H]1CSSC[C@H](NC(=O)[C@H](C(C)C)NC(=O)CNC(=O)[C@H](CCCNC(=N)N)NC(=O)[C@H](CCCNC(=N)N)NC1=O)C(=O)N[C@@H](CCCNC(=N)N)C(=O)N2 [aRTD-1-OH] (H-GFCRCLCRRGVCRCICTR-OH; disulfide 3-16, 5-14, 7-12; N-terminus assumed) | 4.0 µg/mL | – | did not achieve a 99.9% kill | 4 µg/mL | – | – | 4.5 µg/mL | – | 2.4 (A405/sec) · 10^−5 | – | – | – | – | – | – | 4 fold | 15.0 µg/mL | intermediate
CC(C)C[C@@H]1NC(=O)[C@@H]2CSSC[C@H](NC(=O)[C@H](CCCNC(=N)N)NC(=O)[C@@H](NC(=O)[C@@H](NC(=O)CN)C(C)C)CSSC[C@@H](C(=O)N[C@@H](CCCNC(=N)N)C(=O)N[C@@H](CCCNC(=N)N)C(=O)O)NC1=O)C(=O)N[C@@H](CC(C)C)C(=O)N[C@H]1CSSC[C@H](NC(=O)[C@H](C(C)C)NC(=O)CNC(=O)[C@H](CCCNC(=N)N)NC(=O)[C@H](CCCNC(=N)N)NC1=O)C(=O)N[C@@H](CCCNC(=N)N)C(=O)N2 [aRTD-3-OH] (H-GVCRCLCRRGVCRCLCRR-OH; disulfide 3-16, 5-14, 7-12; N-terminus assumed) | 1.5 µg/mL | – | – | 1.5 µg/mL | – | – | 1.5 µg/mL | – | – | – | – | – | – | – | – | 1-2 fold | – | least affected
